Source: patent publication US20070232572A1, “Chemical derivatives as antitelomerase agents which bind specifically to the G-quadruplex DNA structures and their application as a specific anticancer agent” (priority 2003, published 2007)
Where two headings read alike, the source gives them in different places.

What was measured:
[1] = system: any oligonucleotide (non-G-quadruplex control sequence) with its complementary strand; assay: Test of selectivity No. 1 (alpha screen): inhibition of pairing of any oligonucleotide with its complementary strand, luminescence; type: binding; details: control oligonucleotide pairing versus G4 oligonucleotide pairing
Text: The test used is the same as that described above. Only the oligonucleotides are different, the telomeric strand being replaced by an oligonucleotide having the following sequence: G-GTT-TAA-AAT-AAT-TGA-GGC-TTA-CCG-TTA-CCG-TTA-CGG biotinylated at the 5′ end. The complementary strand has the sequence: 5′-GGT-TTA-AAA-AAT-TTG-CGG-TAA-CGG-TAA-CGG-TAA-GCC-T labeled with digoxigenin at the 5′ end. If the test product has affinity for the biotinylated DNA sequence, the pairing of the complementary strand will be prevented and the signal obtained will be minimal. In the absence of product or if the latter has no affinity for this DNA, the pairing will occur and the signal will be maximum.

[2] = system: G-quadruplex oligonucleotide GGGTTAGGGTTAGGGTTAGGG (3.5 repeats of the human telomeric unit), FAM+DABCYL; assay: Test of affinity No. 3: stabilization of the G-quadruplexes, fluorescence Tm; type: binding; details: test product 1 μM, oligonucleotide 0.2 μM, 0.1 M LiCl, 10 mM cacodylate pH 7.6; reference Tm 44° C.
Text: Test of affinity No. 3: Measurement of the stabilization of the G-guadruplexes Tm, expressed in ° C., by a method using the formation of a complex with fluorescein of which the experimental protocol is described below.
All the oligonucleotides, modified or otherwise, were synthesized by Eurogentec S A, Seraing, Belgium. The oligonucleotide FAM+DABCYL has the catalog reference OL-0371-0802. It has the sequence: […] corresponding to 3.5 repeats of the human telomeric unit (strand rich in G). The fluorescein is attached to the 5′ end, the DABCYL to the 3′ end, by the chemical arms described by Eurogentec. An oligonucleotide FAM+TAMRA may also be used. The concentration of the samples is checked by spectrophotometry, by recording the absorbance spectrum between 220 and 700 nm and using the molar extinction coefficient provided by the supplier.
All the experiments were carried out in a 10 mM sodium cacodylate buffer pH 7.6 containing 0.1 M lithium chloride (or sodium chloride). The absence of fluorescent contamination in the buffer was checked beforehand. The fluorescent oligonucleotide is added at the final concentration of 0.2 μM.
All the measurements of fluorescence were carried out on a Spex Fluorolog DM1B or Fluoromax 3 apparatus, using an excitation line width of 1.8 nm and an emission line width of 4.5 or 5 nm. The samples are placed in a microquartz cuvette of 0.2×1 cm. […] The oligonucleotide alone was analyzed at 20, 30, 40, 50, 60, 70 and 80° C. The emission spectra are recorded using an excitation wavelength of 470 nm. The excitation spectra are recorded using either 515 or 588 nm as emission wavelength. […] A high extinction (80-90%) of the fluorescence of fluorescein at room temperature is observed, in agreement with an intramolecular folding of the oligonucleotide at 20° C. in the form of a G-quadruplex, which induces juxtaposition of its 5′ and 3′ ends which are respectively linked to fluorescein and to DABCYL. This juxtaposition causes an already-described phenomenon of extinction of fluorescence which is used for “Molecular Beacons”. […]

[3] = system: oligonucleotide capable of forming a G-quadruplex structure (G-rich strand, repetitive units of human telomeric DNA); assay: Test of affinity No. 1 (alpha screen): inhibition of pairing of a G-quadruplex-forming oligonucleotide with its complementary strand, luminescence; type: binding; details: 50 mM TRIS-HCl pH 7.4, 100 mM KCl, 0.1% BSA; telomeric strand vs complementary strand; read-out: Affinity/selectivity G4 Test 1 (alpha screen) Affinity IC50
Text: The principle of this test uses the activation of “acceptor” beads by an oxygen singlet emitted by “donor” beads excited by laser when the “acceptor” and “donor” beads are in proximity. This test was developed by Packard Bioscience under the name Amplified Luminescent Proximity Homogeneous Assay or ALPHA screen.
The “donor” beads are conjugated with streptavidin and the acceptor beads with an anti-digoxigenin antibody (catalog reference 6760604). A DNA strand, in this case the telomeric strand, is coupled at its 5′ end to biotin so as to be able to bind to the “donor” beads, while the complementary strand is coupled to digoxigenin so as to be able to bind to the “acceptor” beads. During the pairing of the telomeric strand with its complementary strand, the beads are placed in proximity and a luminescence signal is then emitted at a wavelength of 520-620 nm.
The oligonucleotides used in the experiments were synthesized by Perkin Elmer Life Sciences (Finland). […] The complementary strand has the sequence GGT-TTA-AAA-AAT-TTG-CCC-TAA-CCC-TAA-CCC-TAA-CCC-T. The biotin or the digoxigenin are added to the 5′ end of the oligonucleotides.
The experiments are carried out in 50 mM TRIS-HCl buffer pH 7.4 containing 100 mM KCl and 0.1% BSA.
The measurements are carried out with an Alphaquest microplate analyzer (Fusion α) from Packard Biosciences.
The experiments are carried out in 96-well plates (½ wells). An oligonucleotide stock solution at the concentration of 25 nM in the buffer described above is prepared. 10 μl of this solution are distributed into the wells. 10 μl of the test product at different concentrations, prepared in the same buffer containing 0.6% DMSO, are then added. 10 μl of buffer+0.6% DMSO are distributed into the control wells. The samples are left to incubate for 15 minutes at room temperature. After this incubation time, 10 μl of the complementary strand at the concentration of 25 nM and 20 μl of a solution containing 2 types of bead diluted beforehand to 50 mg/ml are added to the wells. The plates are incubated at room temperature for 2 hours before reading. […]

[4] = system: human telomerase (extract of A549 cells), oligonucleotide TSG4; assay: Antitelomerase activity by the TRAP-G4 assay; type: biochemical; details: formation of the TSG4-CXext band; read-out: Inhibition of telomerase IC50 (IC50 TRAP-G4)
Experimental: The extract is stored at -80° C.

[5] = system: any double-stranded oligonucleotide; assay: Test of selectivity No. 2: dissociation constant of the complex with a double-stranded oligonucleotide, by fluorescence; type: binding; details: DNA double strand versus oligonucleotide G4
Experimental: Test of selectivity No. 2: Measurement of the dissociation constant, expressed in μM, of the complex between a product of the invention and any double-stranded oligonucleotide, by a fluorescence method according to the experimental protocol is described below.
The titrations are carried out according to a protocol identical to that used for the titrations of the preceding test.

[6] = target: oligonucleotide capable of forming a monomeric G-quadruplex structure; assay: Test of affinity No. 2: dissociation constant of the complex with a monomeric G-quadruplex oligonucleotide, by fluorescence; type: binding; details: read-out: Affinity/selectivity G4 Test 2 (Kd by fluorescence) Kd
Experimental: Test of affinity No. 2: Measurement of the dissociation constant, expressed in μM, of the complex between a product of the invention and an oligonucleotide, capable of forming a monomeric G-guadruplex structure, by a fluorescence method according to the experimental protocol is described below.
The titrations are carried out at 20° C. in a quartz cuvette having a useful volume of 3 ml and a cross section of 10×10 mm, placed in the thermostated compartment of the Spex Fluorolog 3 fluorimeter (Jobin-Yvon). […] To a 0.1 μM solution of compound are added increasing concentrations of nucleic acids. After an equilibration time of 3 minutes, a fluorescence emission spectrum is recorded for each point, using slits of 5 nm and an excitation wavelength of 340 nm. Each aliquot represents an additional volume of 3 microliters. The effects of dilution are corrected at the end of the experiment after integrating the emission signal. The curves representing the emission intensity as a function of the nucleic acid concentration are then analyzed and fitted with the Kaleidagraph 3.52 software for Macintosh.

[7] = 20° C., sodium cacodylate pH 7.2, 100 mM potassium chloride (K+)

| IC50 [3] [nM] | IC50 [4] [nM] | Affinity/selectivity G4 Test 2 (Kd by fluorescence) Selectivity factor [5] | Kd [6, 7] [nM] | Kd ([6]; Na+) [nM] | Structure (SMILES) | Affinity/selectivity G4 Test 1 (alpha screen) Selectivity factor [1] | Affinity G4 Test 3 Delta Tm [2] [°C] |
| --- | --- | --- | --- | --- | --- | --- | --- |
| 1060 | 1500 |  |  |  | C[n+]1cccc2cc(NC(=O)c3cccc(C(=O)NCC[N+]4(C)CCCCC4)n3)ccc21.[I-].[I-] [Example 12, 2-[(1-methylquinolinio-6-yl)amido]-6-[2(-1-methylpiperidinio-1-yl)ethylamido]-2,6-pyridinedicarboxylic acid diiodide] | >3 | 12.1 |
| 60 | 300 | >1000 | 0.7 | 3.2 | C[n+]1cccc2cc(NC(=O)c3cccc(C(=O)Nc4cc5ccccc5[n+](C)c4)n3)ccc21.[I-].[I-] [Example 9, 2-[(1-methylquinolinio-6-yl)amido]-6-[(1-methylquinolinio-3-yl)amido]-2,6-pyridinedicarboxylic acid iodide] | >50 | 21 |
| 160 | 450 | >>100 | 7 |  | C[n+]1cccc2cc(NC(=O)c3cccc(C(=O)Nc4ccc5c(ccc[n+]5C)c4)n3)ccc21.[I-].[I-] [Example 1, bis[(1-methylquinolinio-6-yl)amido]-2,6-pyridinedicarboxylic acid diiodide] | >20 | 26 |
